{"source": "patent US20080139804A1", "about": "“Photosensitive Compounds” (priority 2005, published 2008)", "key": {"[1]": {"experiment": "In vivo pharmacokinetics of zinc coproporphyrin-I in HeLa tumor-bearing nude mice (tissue fluorescence)", "parameters": "species or system (BALB/c) nude mouse", "conditions": "25 mg/kg intravenous in physiological saline, back and muscle, excitation 405 nm, fluorescence 580 nm", "procedure": "In the back of a (BALB/c) nude mouse, 5×10^6 HeLa cells in 0.1 ml were transplanted intradermally. When the tumor grew to 12-17 mm diameter, 25 mg/kg of zinc coproporphyrin-I in physiological saline was intravenously injected, and mice were sacrificed at each time shown in FIG. 2, and then zinc coproporphyrin-I in 3 kinds of tissues (tumor, back and muscle) was measured with excitation at 405 nm and fluorescence at 580 nm."}, "[2]": {"experiment": "Photophysical characteristics: absorption spectrum", "type": "physicochemical", "excerpt": "Measurement of Photophysical Characteristics of Zinc Coproporphyrin-I"}, "[3]": {"experiment": "Photophysical characteristics: generation of singlet oxygen (near infrared emission)", "type": "physicochemical", "conditions": "excitation at 563 nm, emission at 1270 nm in near infrared light", "excerpt": "Also, the generation of singlet oxygen was confirmed with excitation at 563 nm and emission at 1270 nm in near infrared light."}, "DNA": {"test_system": "DNA", "experiment": "DNA breakage under light irradiation", "type": "biochemical", "conditions": "under the irradiation of 350 nm light", "excerpt": "(§1) Thus, after systemic administration of these compounds systemically, cancer tissues can be selectively killed, and the cancer can be treated without side effects by irradiating light only on the cancer tissues. Therefore, these compounds can be used as photodynamic therapy agents not only for surface cancer types (for example, breast cancer, skin cancer, esophageal cancer) but also deep cancer types (for example, gastric cancer, lung cancer)."}, "[4]": {"experiment": "Anti-cellular activity with and without light irradiation, in vitro system using mice", "type": "cell-based", "excerpt": "as §1"}, "HeLa tumor": {"test_system": "HeLa tumor", "experiment": "Drug efficacy of the agent for photodynamic therapy: laser irradiation of HeLa tumor in nude mouse, HE-stained sections", "conditions": "203 mg/kg i.v.; YAG-Dye laser 580 nm after 28 minutes, 100 J/cm^2; tumors excised 24 hours after irradiation", "procedure": "To the back of a (BALB/c) nude mouse, 5×10^6 HeLa cells in 0.1 ml were intradermally transplanted. […] The wavelength was 580 nm. The light was emitted horizontally to the side of the tumor. To observe the necrosis layer, the tumors were excised out at 24 hours after the laser irradiation, fixed in 20% formaldehyde solution and embedded in paraffin. Sections were prepared, stained with HE and observed."}, "[5]": {"conditions": "patients administered therewith; cited from earlier work"}, "cancer cells": {"test_system": "cancer cells", "conditions": "photo-irradiation; cited from earlier work"}}, "note": "Several values for one entry are separate records, joined by “and”; a condition that tells them apart may be missing. Equal entries are not always repeated. Entries after “also recorded” stand apart in the source; their conditions may differ.", "data": [{"compound": "zinc coproporphyrin-I", "values": [{"measurement": "time until excreted out of the body", "setting": "[1]", "result": "3 to 4", "unit": "days"}, {"measurement": "absorption peaks", "setting": "[2]", "result": "403 nm and 535 nm and 571 nm"}, {"measurement": "generation of singlet oxygen", "setting": "[3]", "result": "confirmed"}, {"measurement": "DNA breakage", "setting": "DNA", "result": "can break DNA efficiently"}, {"measurement": "anti-cellular activity under the irradiation of light", "setting": "[4]; irradiation of light which induces DNA cleavage", "result": "strong anti-cellular activity"}, {"measurement": "anti-cellular activity by themselves", "setting": "[4]; without light irradiation", "result": "do not demonstrate any anti-cellular activity"}, {"measurement": "cells appearing to be dead", "setting": "HeLa tumor", "result": "about 10 % of the total cells"}, {"measurement": "histological observations after light irradiation of the HeLa tumor", "setting": "HeLa tumor", "result": "thrombus formation in the capillary vessels and hemorrhage inside of the tissues; also recorded: anucleated cells, chromatin condensed cells and cells with ruptured vacuoles were seen"}]}, {"compound": "C=CC1=C(C)C2=CC3=C(/C=C/NO)C(C)(O)C(=CC4=NC(=CC5=NC(=CC1=N2)C(C)=C5CCC(=O)N[C@@H](CC(=O)[O-])C(=O)[O-])C(CCC(=O)N[C@@H](CC(=O)[O-])C(=O)[O-])=C4C)N3.[Na+].[Na+].[Na+].[Na+]", "note": "(stereo partly shown) [ATX-S10 (Na)]", "values": [{"measurement": "complete excretion period from the body", "setting": "[5]", "result": "7 to 8", "unit": "h"}]}, {"compound": "coproporphyrin-III", "values": [{"measurement": "toxic effect on cancer cells compared to that of hematoporphyrin", "setting": "cancer cells", "result": "superior toxic effect"}]}]}
